From patent US20240150293A1, “SPIROCYCLOHEXANE DERIVATIVES, PHARMACEUTICAL COMPOSITIONS CONTAINING THEM AND THEIR USES AS ANTI-APOPTOTIC INHIBITORS” (LES LABORATOIRES SERVIER, priority 2021, published 2024)
Like-named read-outs stand apart in the source and are kept apart here.

Assays:
[1] = target: Cy5-labelled Mcl1 (amino acids 171-321) C286S protein (UniProtKB Q07820) (Homo sapiens (Human), UniProt Q07820, C286S); test: Inhibition of Mcl-1 by the fluorescence quenching assay (Example A, Method B); type: binding
In short: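 Cy5-labelled Mcl1 171-321 C286S (1 nM) quenched by TQ5WS-labelled PUMA peptide (10, 20 or 400 nM); displacement raises fluorescence (Ex 620/Em 680 nm). Buffer 10 mM HEPES, 150 mM NaCl, 0.05% Tween 20, pH 7.4, 5% DMSO; 2 h at room temperature, 11-point curves, IC50 converted to Ki (cKi/eKi).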

[2] = test system: H929 multiple myeloma tumor line; test: In vitro cytotoxicity, MTT assay (Example B, Method A); type: cell-based; conditions: H929 cells, 48 hours exposure, read-out: C50
Procedure: The cytotoxicity studies were carried out on the H929 multiple myeloma tumor line.
The cells are distributed onto microplates and exposed to the test compounds for 48 hours. The cell viability is then quantified by a colorimetric assay, the Microculture Tetrazolium Assay (Carmichael et al, Cancer Res. 1987, 47, 939-942).
The results are expressed in C50 which means concentration corresponding to […] of effect/inhibition.

Chain of Cy5-labelled Mcl1 (amino acids 171-321) C286S protein (Q07820 171-321 C286S): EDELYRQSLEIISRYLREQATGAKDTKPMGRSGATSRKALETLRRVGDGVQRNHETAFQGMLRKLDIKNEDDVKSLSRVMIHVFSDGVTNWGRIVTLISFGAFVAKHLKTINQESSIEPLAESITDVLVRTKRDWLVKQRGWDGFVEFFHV

C[C@@H](COc1ccnc2c1[C@H](C)CC[C@H]2O)C[C@H]1Cc2ccccc2[C@]12CC[C@@](Nc1cccc(Cl)c1)(C(=O)O)CC2 [Example 673, (1r,2′S,4S)-4-(3-chloroanilino)-2′-[(2R)-3-{[(5R,8S)-8-hydroxy-5-methyl-5,6,7,8-tetrahydroquinolin-4-yl]oxy}-2-methylpropyl]-2′,3′-dihydrospiro[cyclohexane-1,1′-indene]-4-carboxylic acid]
Ki [1]: 0.647 nM | IC50 [2]: 208 nM

CC1CCc2c(OC[C@H](C)C[C@H]3Cc4ccccc4[C@]34CC[C@@](Nc3cccc(Cl)c3)(C(=O)O)CC4)ccnc2C1 (stereo partly drawn) [Example 650, (1r,2′S,4S)-4-(3-chloroanilino)-2′-{(2R)-2-methyl-3-[(7-methyl-5,6,7,8-tetrahydroquinolin-4-yl)oxy]propyl}-2′,3′-dihydrospiro[cyclohexane-1,1′-indene]-4-carboxylic acid]
Ki [1]: 5.54 nM | IC50 ([2]; Homo sapiens, NCI-H929, 48 h): 912 nM

C[C@@H](COc1ccnc2c1[C@H](C)CCC2)CC1Cc2c(F)cccc2[C@]12CC[C@@](Nc1cccc(Cl)c1)(C(=O)O)CC2 (single isomer, unassigned) [Example 742]
Ki [1]: 1.23 nM | IC50 ([2]; Homo sapiens, NCI-H929, 48 h): 59.6 nM

C[C@@H](COc1ccnc2c1[C@H](C)CCC2)C[C@H]1Cc2ccccc2[C@]12CC[C@@](Nc1cccc(Br)c1)(C(=O)O)CC2 [Example 711, (1r,2′S,4S)-4-(3-bromoanilino)-2′-[(2R)-2-methyl-3-{[(5R)-5-methyl-5,6,7,8-tetrahydroquinolin-4-yl]oxy}propyl]-2′,3′-dihydrospiro[cyclohexane-1,1′-indene]-4-carboxylic acid]
Ki [1]: 0.446 nM | IC50 ([2]; Homo sapiens, NCI-H929, 48 h): 59.8 nM

C[C@@H](COc1ccnc2c1CCCC2)C[C@H]1Cc2ccccc2[C@]12CC[C@@](Nc1cccc(Cl)c1)(C(=O)O)CC2 [Example 645, (1r,4R)-4-(3-chloroanilino)-2′-{(2R)-2-methyl-3-[(5,6,7,8-tetrahydroquinolin-4-yl)oxy]propyl}-2′,3′-dihydrospiro[cyclohexane-1,1′-indene]-4-carboxylic acid]
Ki [1]: 4.04 nM | IC50 ([2]; Homo sapiens, NCI-H929, 48 h): 617 nM

CC(C)(COc1ccnc2sccc12)CC1Cc2ccccc2C12CCC(Nc1cccc(Cl)c1)(C(=O)O)CC2 (single isomer, unassigned) [Example 623, (1r,4r)-4-(3-chloroanilino)-2′-{2,2-dimethyl-3-[(thieno[2,3-b]pyridin-4-yl)oxy]propyl}-2′,3′-dihydrospiro[cyclohexane-1,1′-indene]-4-carboxylic acid]
Ki [1]: 2320 nM | IC50 [2]: 30000 nM

C[C@@H]1Cc2nccc(OC[C@H](C)C[C@H]3Cc4ccccc4[C@]34CC[C@@](Nc3cccc(Cl)c3)(C(=O)O)CC4)c2[C@@H](C)C1 [Example 666, (1r,2′S,4S)-4-(3-chloroanilino)-2′-[(2R)-3-{[(5S,7S)-5,7-dimethyl-5,6,7,8-tetrahydroquinolin-4-yl]oxy}-2-methylpropyl]-2′,3′-dihydrospiro[cyclohexane-1,1′-indene]-4-carboxylic acid]
Ki [1]: 28.7 nM | IC50 ([2]; Homo sapiens, NCI-H929, 48 h): 1070 nM

C[C@@H](COc1ccnc2ccsc12)C[C@H]1Cc2cc(F)ccc2[C@]12CC[C@@](Nc1cccc(Cl)c1)(C(=O)O)CC2 [Example 737, (1r,2′S,4S)-4-(3-chloroanilino)-5′-fluoro-2′-{(2R)-2-methyl-3-[(thieno[3,2-b]pyridin-7-yl)oxy]propyl}-2′,3′-dihydrospiro[cyclohexane-1,1′-indene]-4-carboxylic acid]
Ki [1]: 0.932 nM | IC50 ([2]; Homo sapiens, NCI-H929, 48 h): 191 nM

O=C(O)[C@]1(Nc2cccc(Cl)c2)CC[C@@]2(CC1)c1ccccc1CC2CC(COc1ccnc2ccsc12)Cc1ccccc1 (single isomer, unassigned) [Example 561, (1r,4r)-2′-{2-benzyl-3-[(thieno[3,2-b]pyridin-7-yl)oxy]propyl}-4-(3-chloroanilino)-2′,3′-dihydrospiro[cyclohexane-1,1′-indene]-4-carboxylic acid]
Ki [1]: 57.1 nM | IC50 [2]: 12300 nM

C[C@@H](COc1ccnc2c1[C@@H](C)CCC2)CC1=Cc2ccccc2[C@]12CC[C@@](Nc1cccc(Cl)c1)(C(=O)O)CC2 [Example 647, (1r,4R)-4-(3-chloroanilino)-2′-[(2R)-2-methyl-3-{[(5S)-5-methyl-5,6,7,8-tetrahydroquinolin-4-yl]oxy}propyl]spiro[cyclohexane-1,1′-indene]-4-carboxylic acid]
Ki [1]: 9.39 nM | IC50 ([2]; Homo sapiens, NCI-H929, 48 h): 871 nM

CC[C@H]1CC[C@H](F)c2nccc(OC[C@H](C)C[C@H]3Cc4ccccc4[C@]34CC[C@@](Nc3cccc(Cl)c3)(C(=O)O)CC4)c21 [Example 696, (1r,2′S,4S)-4-(3-chloroanilino)-2′-[(2R)-3-{[(5S,8S)-5-ethyl-8-fluoro-5,6,7,8-tetrahydroquinolin-4-yl]oxy}-2-methylpropyl]-2′,3′-dihydrospiro[cyclohexane-1,1′-indene]-4-carboxylic acid]
Ki [1]: 103 nM | IC50 ([2]; Homo sapiens, NCI-H929, 48 h): 5070 nM

C[C@@H](COc1ccnc2c1[C@@H](C)CCC2)C[C@H]1Cc2ccccc2[C@]12CC[C@@](Cc1cccc(Cl)c1)(C(=O)O)CC2 [Example 719, (1s,2′S,4R)-4-[(3-chlorophenyl)methyl]-2′-[(2R)-2-methyl-3-{[(5S)-5-methyl-5,6,7,8-tetrahydroquinolin-4-yl]oxy}propyl]-2′,3′-dihydrospiro[cyclohexane-1,1′-indene]-4-carboxylic acid]
Ki [1]: 1450 nM | IC50 ([2]; Homo sapiens, NCI-H929, 48 h): 13200 nM

C[C@@H](COc1ccnc2c1[C@H](C)CC[C@@H]2F)C[C@H]1Cc2ccccc2[C@]12CC[C@@](Nc1cccc(Cl)c1)(C(=O)O)CC2 [Example 688, (1r,2′S,4S)-4-(3-chloroanilino)-2′-[(2R)-3-{[(5S,8R)-8-fluoro-5-methyl-5,6,7,8-tetrahydroquinolin-4-yl]oxy}-2-methylpropyl]-2′,3′-dihydrospiro[cyclohexane-1,1′-indene]-4-carboxylic acid]
Ki [1]: 0.965 nM | IC50 ([2]; Homo sapiens, NCI-H929, 48 h): 234 nM

C[C@@H](COc1ccnc2c1[C@H](C(F)(F)F)CCC2)C[C@H]1Cc2ccccc2[C@]12CC[C@@](Nc1cccc(Cl)c1)(C(=O)O)CC2 [Example 699, (1r,2′S,4S)-4-(3-chloroanilino)-2′-[(2R)-2-methyl-3-{[(5R)-5-(trifluoromethyl)-5,6,7,8-tetrahydroquinolin-4-yl]oxy}propyl]-2′,3′-dihydrospiro[cyclohexane-1,1′-indene]-4-carboxylic acid]
Ki [1]: 1.15 nM | IC50 ([2]; Homo sapiens, NCI-H929, 48 h): 115 nM

O=C(O)[C@]1(Nc2cccc(Cl)c2)CC[C@@]2(CC1)c1ccccc1CC2CC(COc1ccnc2ccsc12)Cc1ccccc1 (single isomer, unassigned) [Example 560, (1r,4r)-2′-{2-benzyl-3-[(thieno[3,2-b]pyridin-7-yl)oxy]propyl}-4-(3-chloroanilino)-2′,3′-dihydrospiro[cyclohexane-1,1′-indene]-4-carboxylic acid]
Ki [1]: 92 nM | IC50 [2]: 12600 nM

C[C@@H](COc1ccnc2c1[C@H](C)CCC2)C[C@H]1Cc2ccccc2[C@]12CC[C@@](Nc1ccnc(Cl)c1)(C(=O)O)CC2 [Example 714, (1r,2′S,4S)-4-[(2-chloropyridin-4-yl)amino]-2′-[(2R)-2-methyl-3-{[(5R)-5-methyl-5,6,7,8-tetrahydroquinolin-4-yl]oxy}propyl]-2′,3′-dihydrospiro[cyclohexane-1,1′-indene]-4-carboxylic acid]
Ki [1]: 4.75 nM | IC50 ([2]; Homo sapiens, NCI-H929, 48 h): 1260 nM
